Results from the NIST ThermoML archive (doi:10.1016/j.jct.2014.06.017).

Test: wn = mass fraction of the nth substance listed
Conditions: 100 kPa, Liquid, Concentric cylinders viscometry

NCCO [2-aminoethan-1-ol] + O
viscosity [mPa·s]
Conditions | 298.2 K | 303.2 K | 313.2 K | 323.2 K
w1 = 0.2 | 1.72 | 1.53 | 1.18 | 0.98
w1 = 0.2499 | 2.02 | 1.79 | 1.32 | 1.12
w1 = 0.3001 | 2.32 | 2.13 | 1.59 | 1.31

CN(CCO)CCO [N-methyldiethanolamine] + O
viscosity [mPa·s]
Conditions | 298.2 K | 303.2 K | 313.2 K | 323.2 K
w1 = 0.3502 | 4.07 | 3.36 | 2.56 | 2.02
w1 = 0.4001 | 5.2 | 4.41 | 3.02 | 2.65
w1 = 0.45 | 7.62 | 6.1 | 4.37 | 3.63

OCCNCCO [diethanolamine] + O
viscosity [mPa·s]
Conditions | 298.2 K | 303.2 K | 313.2 K | 323.2 K
w1 = 0.2001 | 1.92 | 1.67 | 1.32 | 1.05
w1 = 0.25 | 2.61 | 2.16 | 1.67 | 1.34
w1 = 0.3001 | 3.26 | 2.57 | 1.99 | 1.41
